Values after ≈ are worked out from the molar mass of the structure shown. Like-named read-outs stand apart in the source and are kept apart here.
Assays:
Assay in all cases: In-vitro antimicrobial activity primary screen (agar dilution MIC)
Type in all cases: cell-based
[1] = system: Staphylococcus aureus CMX 553; details: Staphylococcus aureus, CMX553, 24 h, BHI agar, 20-24 h, read-out: MIC
In short: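 Agar dilution in Brain Heart Infusion agar with twelve successive compound dilutions; plates inoculated with 1:100 diluted cultures by replicator and incubated 20-24 h at 35-37 °C. MIC is the lowest concentration giving no growth, slight haze or sparse isolated colonies versus compound-free control; erythromycin A plate run as reference.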

[2] = system: Pseudomonas aeruginosa A5007; details: Pseudomonas aeruginosa, A5007, 24 h
In short: (§1)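 Twelve plates of successive aqueous compound dilutions in Brain Heart Infusion agar were spot-inoculated by Steers replicator with 1:100 culture dilutions (1:10 for slow growers such as Streptococcus) and incubated at 35-37° C for 20-24 hours. MIC was the lowest concentration giving no growth, slight haze or sparse colonies.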

[3] = system: Klebsiella pneumoniae ATCC 8045; details: Klebsiella pneumoniae, ATCC8045, 24 h
In short: as §1

[4] = system: Enterobacter aerogenes ATCC 13048; details: Klebsiella aerogenes, ATCC13048, 24 h
In short: as §1

[5] = system: Micrococcus luteus ATCC 9341; details: ATCC9341, BHI agar, 20-24 h, read-out: MIC
In short: as §1

[6] = system: Staphylococcus aureus NCTC 10649; details: NCTC10649, BHI agar, 20-24 h, read-out: MIC
In short: as §1

[7] = system: Micrococcus luteus ATCC 4698; details: Micrococcus luteus, ATCC4698, 24 h, BHI agar, 20-24 h
In short: as §1

Escherichia coli JUHL = details: Escherichia coli, 24 h
In short: as §1

[8] = system: Staphylococcus aureus ATCC 6538P; details: Staphylococcus aureus, ATCC6538P, 24 h, BHI agar, 20-24 h
In short: as §1

Pseudomonas cepacia 2961 = details: Burkholderia cepacia, 2961, 24 h, BHI agar, 20-24 h
In short: as §1

[9] = system: Staphylococcus aureus A5177; details: Staphylococcus aureus, A5177, 24 h
In short: as §1

[10] = system: Streptococcus bovis A5169; details: Streptococcus equinus, A5169, 24 h, BHI agar, 20-24 h
In short: as §1

Escherichia coli H560 = details: Escherichia coli, H560, 24 h
In short: as §1

[11] = system: Providencia stuartii CMX 640; details: Providencia stuartii, CMX640, 24 h
In short: as §1

[12] = system: Streptococcus agalactiae CMX 508; details: 20-24 h
In short: as §1

[13] = system: Staphylococcus epidermidis 3519; details: Staphylococcus epidermidis, 3519, 24 h, BHI agar, 20-24 h
In short: as §1

[14] = system: Streptococcus pyrogenes 2548 INDUC; details: BHI agar, 20-24 h
In short: as §1

[15] = system: Streptococcus pyrogenes EES61; details: BHI agar, 20-24 h
In short: as §1

[16] = system: Pseudomonas aeruginosa BMH10; details: Pseudomonas aeruginosa, BMH10, 24 h, BHI agar, 20-24 h
In short: as §1

Staphylococcus aureus 45 = details: Staphylococcus aureus, 45, 24 h, BHI agar, 20-24 h
In short: as §1

Escherichia coli SS = details: BHI agar, 20-24 h, read-out: MIC
In short: as §1

[17] = system: Enterococcus faecium ATCC 8043; details: Enterococcus faecium, ATCC8043, 24 h
In short: as §1

[18] = system: Pseudomonas aeruginosa K799/WT; details: Pseudomonas aeruginosa, K799/WT, 24 h
In short: as §1

Escherichia coli DC-2 = details: Escherichia coli, DC2, 24 h
In short: as §1

[19] = system: Staphylococcus aureus 642A; details: BHI agar, 20-24 h, read-out: MIC
In short: as §1

[20] = system: Staphylococcus aureus 45 RAR2; details: Staphylococcus aureus, 45RAR2, 24 h, BHI agar, 20-24 h
In short: as §1

[21] = system: Pseudomonas aeruginosa K799/61; details: Pseudomonas aeruginosa, K799/61, 24 h, Pseudomonas aeruginosa K799/61; BHI agar, 20-24 h
In short: as §1

Acinetobacter SP CMX 669 = details: Acinetobacter, SPCMX669, 24 h, Acinetobacter SP CMX 669; BHI agar, 20-24 h
In short: as §1

CC[C@H]1OC(=O)[C@H](C)[C@@H](O[C@H]2C[C@@](C)(OC)[C@@H](O)[C@H](C)O2)[C@H](C)[C@@H](O[C@@H]2O[C@H](C)C[C@H](N(C)C)[C@H]2O)[C@](C)(OC)C[C@@H](C)C2=C(C)C(=O)[C@]1(C)O2 [Example 27, 9,10-Dihehydro-9-deoxo-11,12-dideoxy-9,12-epoxy-6-O-methyl-11-oxoerythromycin A]
MIC [1]: 0.39 µg/mL (≈ 0.536 µM) | MIC [2]: > 100 µg/mL | MIC [3]: > 100 µg/mL | MIC [4]: > 100 µg/mL | MIC [5]: 0.05 µg/mL (≈ 0.0687 µM) | MIC [6]: 0.39 µg/mL (≈ 0.536 µM) | MIC [7]: 0.2 µg/mL (≈ 0.275 µM) | MIC (Escherichia coli JUHL): > 100 µg/mL | MIC [8]: 0.39 µg/mL (≈ 0.536 µM) | MIC (Pseudomonas cepacia 2961): > 100 µg/mL | MIC [9]: 0.39 µg/mL (≈ 0.536 µM) | MIC [10]: 0.05 µg/mL (≈ 0.0687 µM) | MIC (Escherichia coli H560): 100 µg/mL (≈ 137 µM) | MIC [11]: > 100 µg/mL | MIC ([12]; Streptococcus agalactiae, CMX508, 24 h, BHI agar): 0.05 µg/mL (≈ 0.0687 µM) | MIC [13]: 0.39 µg/mL (≈ 0.536 µM) | MIC ([14]; read-out: MIC): 100 µg/mL (≈ 137 µM) | MIC ([15]; Streptococcus, EES61, 24 h): 0.05 µg/mL (≈ 0.0687 µM) | MIC [16]: 100 µg/mL (≈ 137 µM) | MIC (Staphylococcus aureus 45): 3.1 µg/mL (≈ 4.26 µM) | MIC (Escherichia coli SS): 0.78 µg/mL (≈ 1.07 µM) | MIC [17]: 0.1 µg/mL (≈ 0.137 µM) | MIC [18]: > 100 µg/mL | MIC (Escherichia coli DC-2): > 100 µg/mL | MIC [19]: 0.39 µg/mL (≈ 0.536 µM) | MIC [20]: 0.39 µg/mL (≈ 0.536 µM)

CC[C@H]1OC(=O)[C@H](C)[C@@H](O[C@H]2C[C@@](C)(OC)[C@@H](O)[C@H](C)O2)[C@H](C)[C@@H](O[C@@H]2O[C@H](C)C[C@H](N(C)C)[C@H]2O)[C@](C)(OC)C[C@@H](C)[C@@H]2O[C@@]1(C)C(=O)[C@H]2C [Example 28B]
MIC [1]: 0.39 µg/mL (≈ 0.534 µM) | MIC [2]: > 100 µg/mL | MIC [3]: > 100 µg/mL | MIC [4]: > 100 µg/mL | MIC [5]: 0.05 µg/mL (≈ 0.0685 µM) | MIC [6]: 0.39 µg/mL (≈ 0.534 µM) | MIC [7]: 0.1 µg/mL (≈ 0.137 µM) | MIC (Escherichia coli JUHL): > 100 µg/mL | MIC [8]: 0.39 µg/mL (≈ 0.534 µM) | MIC (Pseudomonas cepacia 2961): > 100 µg/mL | MIC [21]: 3.1 µg/mL (≈ 4.25 µM) | MIC [9]: 0.39 µg/mL (≈ 0.534 µM) | MIC [10]: 0.05 µg/mL (≈ 0.0685 µM) | MIC (Escherichia coli H560): > 100 µg/mL | MIC [11]: > 100 µg/mL | MIC ([12]; CMX508, BHI agar, read-out: MIC): 0.02 µg/mL (≈ 0.0274 µM) | MIC (Acinetobacter SP CMX 669): 12.5 µg/mL (≈ 17.1 µM) | MIC [13]: 0.39 µg/mL (≈ 0.534 µM) | MIC ([14]; Streptococcus, 2548INDUC, 24 h): 3.1 µg/mL (≈ 4.25 µM) | MIC ([15]; read-out: MIC): 0.02 µg/mL (≈ 0.0274 µM) | MIC [16]: 50 µg/mL (≈ 68.5 µM) | MIC (Staphylococcus aureus 45): 3.1 µg/mL (≈ 4.25 µM) | MIC (Escherichia coli SS): 0.39 µg/mL (≈ 0.534 µM) | MIC [17]: 0.1 µg/mL (≈ 0.137 µM) | MIC [18]: > 100 µg/mL | MIC (Escherichia coli DC-2): > 100 µg/mL | MIC [19]: 0.39 µg/mL (≈ 0.534 µM) | MIC [20]: 0.39 µg/mL (≈ 0.534 µM)

Reference: US5288709A, “Erythromycin derivatives” (priority 1991, dated 1994)
